SMILES strings stand for the structures.

Results on seven molecules are retold here after patent publication US12435108B2, “Teixobactin analogue and use thereof” (SUNSHINE LAKE PHARMA CO., LTD., priority 2019, dated 2025).

Assay [1] has as its system Mycobacterium smegmatis mc2155. The assay can be described thus: MIC, 96-well dilution in 7H9 medium (Test Method 3). The conditions noted are these: 96-well plate, 35±2 °C, 48 hours, highest concentration 64 μg/mL. It counts as cell-based.
For assay [2], the system named is MRSA (SA86). The conditions noted are these: agar plate two-fold dilution, CLSI, 35 °C, 18 h.
Protocol: (§1) For the determination of the minimum inhibitory concentration (MIC), according to the CLSI standard, a two-fold dilution method with a plate and a Denlay multi-point inoculator were used to conduct the drug sensitivity test. The test bacteria were enriched with MH broth or brain heart infusion. The drug solution was diluted two-fold with MH broth to prepare various required concentrations, and appropriate amounts were added to the plates respectively. After the MH agar medium was melted, it was quantitatively poured into the plates containing the drug solution and mixed uniformly. The final concentrations of the samples were: 128, 64, 32, 16, 8, 4, 2, 1, 0.5, 0.25, 0.125, 0.063, 0.031, 0.016, 0.008, 0.004 μg/mL, respectively. The test bacteria were inoculated (inoculation amount was 10^4 cfu/point) and then incubated at constant temperature of 35 □. The results were observed after 18 h. The minimum concentration of the drug contained in the sterile growth plate was the minimum inhibitory concentration (MIC). Selection of strain types: MRSA (SA86 and SA88), MSSA (ATCC29213), Enterococcus (ET6) and Streptococcus faecalis (SF).
In assay [3] the test system is MSSA (ATCC29213). To be noted: Test Method 1: agar plate two-fold dilution, CLSI, 35 °C, 18 h.
Protocol: as §1
Assay [4] has as its system Enterococcus (ET6). To be noted: agar plate two-fold dilution, CLSI, 35 °C, 18 h.
Protocol: as §1
For assay [5], the system named is MRSA (SA88). The conditions noted are these: agar plate two-fold dilution, CLSI, 35 °C, 18 h.
Protocol: as §1
The subject of assay [6] is Streptococcus faecalis (SF). The conditions noted are these: agar plate two-fold dilution, CLSI, 35 °C, 18 h.
Protocol: as §1

Turning to `CC[C@H](C)[C@H](NC(=O)[C@@H](Cc1ccccc1)NC)C(=O)N[C@@H](CO)C(=O)N[C@H](CCC(N)=O)C(=O)N[C@@H](C(=O)N[C@H](C(=O)N[C@@H](CO)C(=O)N[C@H]1C(=O)N[C@@H](C)C(=O)N[C@@]2(C[C@H]2CC(F)F)C(=O)N[C@@H]([C@@H](C)CC)C(=O)O[C@H]1C)[C@@H](C)CC)[C@@H](C)CC.O=C(O)C(F)(F)F` [Example 1], the “In vitro antibacterial activity MIC, Mycobacterium smegmatis mc2155” value in assay [1] is 8 µg/mL. The “In vitro antibacterial activity MIC, MRSA SA86” value in assay [2] was 4 µg/mL. In assay [3], the “In vitro antibacterial activity MIC, MSSA(ATCC29213)” value was determined as 2 µg/mL. Also, the “In vitro antibacterial activity MIC, Enterococcus (ET6)” value in assay [4] was 4 µg/mL.
On to `CC[C@H](C)[C@H](NC(=O)[C@@H](Cc1ccccc1)NC)C(=O)N[C@@H](CO)C(=O)N[C@H](CCC(N)=O)C(=O)N[C@@H](C(=O)N[C@H](C(=O)N[C@@H](CO)C(=O)N[C@H]1C(=O)N[C@@H](C)C(=O)N[C@]2(C[C@@H]2CC(F)F)C(=O)N[C@@H]([C@@H](C)CC)C(=O)N[C@H]1C)[C@@H](C)CC)[C@@H](C)CC.O=C(O)C(F)(F)F` [Example 2], for which the “In vitro antibacterial activity MIC, MRSA SA86” value in assay [2] came to 4 µg/mL. For the same molecule, the “In vitro antibacterial activity MIC, MRSA SA88” value in assay [5] is 2 µg/mL. For the same molecule, in assay [3], the “In vitro antibacterial activity MIC, MSSA(ATCC29213)” value was determined as 4 µg/mL. The “In vitro antibacterial activity MIC, Enterococcus (ET6)” value in assay [4] is 4 µg/mL. The “In vitro antibacterial activity MIC, Streptococcus faecalis(SF)” value in assay [6] worked out at 8 µg/mL.
As to `C=C[C@@H]1C[C@@]12NC(=O)[C@H](C)NC(=O)[C@H](NC(=O)[C@H](CO)NC(=O)[C@@H](NC(=O)[C@H](NC(=O)[C@@H](CCC(N)=O)NC(=O)[C@H](CO)NC(=O)[C@@H](NC(=O)[C@@H](Cc1ccccc1)NC)[C@@H](C)CC)[C@@H](C)CC)[C@@H](C)CC)[C@H](C)NC(=O)[C@H]([C@@H](C)CC)NC2=O.O=C(O)C(F)(F)F` [Example 4], in assay [2], the “In vitro antibacterial activity MIC, MRSA SA86” value was 8 µg/mL. For the same molecule, the “In vitro antibacterial activity MIC, MRSA SA88” value in assay [5] is 4 µg/mL. Further, in assay [3], the “In vitro antibacterial activity MIC, MSSA(ATCC29213)” value amounted to 4 µg/mL. Besides, in assay [4], the “In vitro antibacterial activity MIC, Enterococcus (ET6)” value stood at 8 µg/mL. For the same molecule, the “In vitro antibacterial activity MIC, Streptococcus faecalis(SF)” value in assay [6] amounted to 8 µg/mL.
`CC[C@H](C)[C@H](NC(=O)[C@@H](Cc1ccccc1)NC)C(=O)N[C@@H](CO)C(=O)N[C@H](CCC(N)=O)C(=O)N[C@@H](C(=O)N[C@H](C(=O)N[C@@H](CO)C(=O)N[C@H]1C(=O)N[C@@H](C)C(=O)NC2(CCCCC2)C(=O)N[C@@H]([C@@H](C)CC)C(=O)O[C@H]1C)[C@@H](C)CC)[C@@H](C)CC.O=C(O)C(F)(F)F` [Example 8]: the “In vitro antibacterial activity MIC, MRSA SA86” value in assay [2] was 8 µg/mL. For the same molecule, the “In vitro antibacterial activity MIC, MRSA SA88” value in assay [5] is 4 µg/mL. Moreover, the “In vitro antibacterial activity MIC, MSSA(ATCC29213)” value in assay [3] stood at 8 µg/mL.
For the molecule `CC[C@H](C)[C@H](NC(=O)[C@@H](Cc1ccccc1)NC)C(=O)N[C@@H](CO)C(=O)N[C@H](CCC(N)=O)C(=O)N[C@@H](C(=O)N[C@H](C(=O)N[C@@H](CO)C(=O)N[C@H]1C(=O)N[C@@H](C)C(=O)NC2(CCCCCC2)C(=O)N[C@@H]([C@@H](C)CC)C(=O)O[C@H]1C)[C@@H](C)CC)[C@@H](C)CC.O=C(O)C(F)(F)F` [Example 9], in assay [2], the “In vitro antibacterial activity MIC, MRSA SA86” value worked out at 4 µg/mL. Besides, the “In vitro antibacterial activity MIC, MSSA(ATCC29213)” value in assay [3] was 4 µg/mL. In addition, the “In vitro antibacterial activity MIC, Enterococcus (ET6)” value in assay [4] was found to be 4 µg/mL. For the same molecule, the “In vitro antibacterial activity MIC, Streptococcus faecalis(SF)” value in assay [6] turned out to be 8 µg/mL.
As to `CC[C@H](C)[C@H](NC(=O)[C@@H](Cc1ccccc1)NC)C(=O)N[C@@H](CO)C(=O)N[C@H](CCC(N)=O)C(=O)N[C@@H](C(=O)N[C@H](C(=O)N[C@@H](CO)C(=O)N[C@H]1C(=O)N[C@@H](C)C(=O)N[C@@]2(C[C@H]2CCN)C(=O)N[C@@H]([C@@H](C)CC)C(=O)O[C@H]1C)[C@@H](C)CC)[C@@H](C)CC.O=C(O)C(F)(F)F` [Example 10], the “In vitro antibacterial activity MIC, MRSA SA86” value in assay [2] is 4 µg/mL. Moreover, the “In vitro antibacterial activity MIC, MRSA SA88” value in assay [5] came out at 4 µg/mL. For the same molecule, the “In vitro antibacterial activity MIC, MSSA(ATCC29213)” value in assay [3] was 2 µg/mL. Also, the “In vitro antibacterial activity MIC, Enterococcus (ET6)” value in assay [4] turned out to be 2 µg/mL. The “In vitro antibacterial activity MIC, Streptococcus faecalis(SF)” value in assay [6] came to 2 µg/mL.
Consider `CC[C@H](C)[C@H](NC(=O)[C@H](N)Cc1ccc(-c2ccccc2)cc1)C(=O)N[C@@H](CO)C(=O)N[C@H](CCC(N)=O)C(=O)N[C@@H](C(=O)N[C@H](C(=O)N[C@@H](CO)C(=O)N[C@H]1C(=O)N[C@@H](C)C(=O)N[C@@]2(C[C@H]2CC(F)F)C(=O)N[C@@H]([C@@H](C)CC)C(=O)O[C@H]1C)[C@@H](C)CC)[C@@H](C)CC` [Example 13], for which the “In vitro antibacterial activity MIC, MRSA SA86” value in assay [2] amounted to 8 µg/mL. Moreover, in assay [5], the “In vitro antibacterial activity MIC, MRSA SA88” value was found to be 8 µg/mL. The “In vitro antibacterial activity MIC, MSSA(ATCC29213)” value in assay [3] was found to be 8 µg/mL. In addition, the “In vitro antibacterial activity MIC, Enterococcus (ET6)” value in assay [4] came to 8 µg/mL. Moreover, the “In vitro antibacterial activity MIC, Streptococcus faecalis(SF)” value in assay [6] turned out to be 8 µg/mL.
